# Reference: ChEMBL document CHEMBL3817761, “Chenopodium album metabolites act as dual topoisomerase inhibitors and induce apoptosis in the MCF7 cell line” (Medchemcomm, 2016)
# pIC50: −log10 of the molar value. The source made the active and inactive calls. No cut-off for these calls is given here.
# Experiments:
# MCF7 [1] = experiment: Cytotoxicity against human MCF7 cells assessed as reduction in cell viability after 72 hrs by MTT assay; assay type: functional, cell-based; details: MCF7, 72 h
# [2] = Cytotoxicity against human SKBR3 cells assessed as reduction in cell viability after 72 hrs by MTT assay; assay type: functional, cell-based; details: SK-BR-3, 72 h
# [3] = Cytotoxicity against human HCT116 cells assessed as reduction in cell viability after 72 hrs by MTT assay; assay type: functional, cell-based; details: HCT-116, 72 h
# [4] = Cytotoxicity against human MOLT4 cells assessed as reduction in cell viability after 72 hrs by MTT assay; assay type: functional, cell-based; details: MOLT-4, 72 h
# [5] = biological target: T1, DNA topoisomerase 1 (Homo sapiens) (UniProt P11387); experiment: Inhibition of human recombinant topoisomerase 1-mediated relaxation of supercoiled pBS (SK+) DNA at 60 uM after 30 mins by ethidium bromide staining based agarose gel electrophoresis
# T1 sequence (whole entry): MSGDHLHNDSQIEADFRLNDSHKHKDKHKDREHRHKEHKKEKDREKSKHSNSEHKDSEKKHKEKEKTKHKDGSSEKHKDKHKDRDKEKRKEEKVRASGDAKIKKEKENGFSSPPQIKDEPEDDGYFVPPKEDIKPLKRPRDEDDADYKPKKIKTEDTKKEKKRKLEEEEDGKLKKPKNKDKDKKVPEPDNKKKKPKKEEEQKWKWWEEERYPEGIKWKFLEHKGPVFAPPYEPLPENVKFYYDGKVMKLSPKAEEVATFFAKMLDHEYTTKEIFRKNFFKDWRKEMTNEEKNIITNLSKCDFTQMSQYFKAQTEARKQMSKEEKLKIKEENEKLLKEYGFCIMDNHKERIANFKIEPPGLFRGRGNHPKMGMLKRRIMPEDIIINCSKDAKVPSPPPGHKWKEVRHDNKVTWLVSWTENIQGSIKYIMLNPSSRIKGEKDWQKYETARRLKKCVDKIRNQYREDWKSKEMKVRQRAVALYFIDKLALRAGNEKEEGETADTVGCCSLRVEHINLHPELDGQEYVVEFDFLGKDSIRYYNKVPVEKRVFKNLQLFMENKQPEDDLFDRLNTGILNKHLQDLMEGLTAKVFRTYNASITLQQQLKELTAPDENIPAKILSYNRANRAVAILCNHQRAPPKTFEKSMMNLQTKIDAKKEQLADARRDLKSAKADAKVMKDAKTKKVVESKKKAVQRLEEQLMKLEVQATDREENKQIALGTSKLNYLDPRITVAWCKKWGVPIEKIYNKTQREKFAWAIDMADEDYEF
# [6] = biological target: DNA topoisomerase 2-alpha (Homo sapiens) (UniProt P11388); experiment: Inhibition of human recombinant topoisomerase 2-mediated relaxation of supercoiled pBS (SK+) DNA at 60 uM after 30 mins by ethidium bromide staining based agarose gel electrophoresis
# [7] = biological target: T1, DNA topoisomerase 1 (Homo sapiens); experiment: Poisoning activity at human recombinant topoisomerase 1 assessed as stabilization of enzyme-supercoiled pBS (SK+) DNA complex at 60 uM after 30 mins by ethidium bromide staining based agarose gel electrophoresis
# [8] = biological target: DNA topoisomerase 2-alpha (Homo sapiens) (UniProt P11388); experiment: Poisoning activity at human recombinant topoisomerase 2 assessed as stabilization of enzyme-supercoiled pBS (SK+) DNA complex at 60 uM after 30 mins by ethidium bromide staining based agarose gel electrophoresis
# [9] = biological target: T1, DNA topoisomerase 1 (Homo sapiens); experiment: Poisoning activity at topoisomerase 1 in human MCF7 cells at 10 uM after 12 hrs by immunoband depletion assay; assay type: cell-based
# [10] = biological target: DNA topoisomerase 2-alpha (Homo sapiens) (UniProt P11388); experiment: Poisoning activity at topoisomerase 2 in human MCF7 cells at 10 uM after 12 hrs by immunoband depletion assay; assay type: cell-based
# [11] = biological target: T1, DNA topoisomerase 1 (Homo sapiens); experiment: Inhibition of CPT mediated formation of topoisomerase 1-supercoiled pBS (SK+) DNA complex in human MCF7 cells at 10 uM preincubated for 2 hrs followed by CPT addition measured after 4 to 12 hrs by immunoband depletion assay; assay type: cell-based
# [12] = biological target: DNA topoisomerase 2-alpha (Homo sapiens) (UniProt P11388); experiment: Inhibition of ETO mediated formation of topoisomerase 2-supercoiled pBS (SK+) DNA complex in human MCF7 cells at 10 uM preincubated for 2 hrs followed by ETO addition measured after 4 to 12 hrs by immunoband depletion assay; assay type: cell-based
# MCF7 [13] = experiment: Induction of apoptosis in human MCF7 cells assessed as late apoptotic cells at 11.33 uM after 24 hrs by Annexin-V-FITC/propidium iodide staining based flow cytometry (reference value: 0.1 %); assay type: functional
# MCF7 [14] = experiment: Induction of apoptosis in human MCF7 cells assessed as viable cells at 11.33 uM after 48 hrs by Annexin-V-FITC/propidium iodide staining based flow cytometry (reference value: 99.2 %); assay type: functional; details: MCF7, 48 h, read-out: Activity
# MCF7 [15] = experiment: Induction of apoptosis in human MCF7 cells assessed as early apoptotic cells at 11.33 uM after 48 hrs by Annexin-V-FITC/propidium iodide staining based flow cytometry (reference value: 0.4 %); assay type: functional
# MCF7 [16] = experiment: Induction of apoptosis in human MCF7 cells assessed as caspase 7 cleavage at 11.33 uM after 48 hrs by Western blot analysis; assay type: functional, cell-based
# MCF7 [17] = experiment: Induction of apoptosis in human MCF7 cells assessed as PARP-1 cleavage at 11.33 uM after 48 hrs by Western blot analysis; assay type: functional, cell-based
# MCF7 [18] = experiment: Cell cycle arrest in human MCF7 cells assessed as accumulation at G0/G1 phase at 11.33 uM after 24 hrs by propidium iodide staining based flow cytometry (reference value: 50.3 %); assay type: functional
# MCF7 [19] = experiment: Cell cycle arrest in human MCF7 cells assessed as accumulation at S phase at 11.33 uM after 24 hrs by propidium iodide staining based flow cytometry (reference value: 24.5 %); assay type: functional
# MCF7 [20] = experiment: Cell cycle arrest in human MCF7 cells assessed as accumulation at G0/G1 phase at 11.33 uM after 48 hrs by propidium iodide staining based flow cytometry (reference value: 59.7 %); assay type: functional
# MCF7 [21] = experiment: Induction of mitochondrial membrane depolarization in human MCF7 cells assessed as ratio of red to green fluorescence at 11.33 uM after 24 hrs by JC-1 staining based FACS assay (reference value: 9.1); assay type: functional
# MCF7 [22] = experiment: Induction of apoptosis in human MCF7 cells assessed as late apoptotic cells at 8.27 uM after 24 hrs by Annexin-V-FITC/propidium iodide staining based flow cytometry (reference value: 0.1 %); assay type: functional
# MCF7 [23] = experiment: Induction of apoptosis in human MCF7 cells assessed as early apoptotic cells at 8.27 uM after 48 hrs by Annexin-V-FITC/propidium iodide staining based flow cytometry (reference value: 0.4 %); assay type: functional
# MCF7 [24] = experiment: Induction of mitochondrial membrane depolarization in human MCF7 cells at 8.27 uM after 24 hrs by JC-1 staining based FACS assay (reference value: 9.9 %); assay type: functional
# MCF7 [25] = experiment: Induction of apoptosis in human MCF7 cells assessed as caspase 7 cleavage at 8.27 uM after 48 hrs by Western blot analysis; assay type: functional, cell-based
# MCF7 [26] = experiment: Induction of apoptosis in human MCF7 cells assessed as PARP-1 cleavage at 8.27 uM after 48 hrs by Western blot analysis; assay type: functional, cell-based
# MCF7 [27] = experiment: Cell cycle arrest in human MCF7 cells assessed as accumulation at G2/M phase at 8.27 uM after 24 hrs by propidium iodide staining based flow cytometry (reference value: 25 %); assay type: functional
# MCF7 [28] = experiment: Cell cycle arrest in human MCF7 cells assessed as accumulation at G0/G1 phase at 8.27 uM after 48 hrs by propidium iodide staining based flow cytometry (reference value: 59.7 %); assay type: functional
# Chain of DNA topoisomerase 2-alpha (Homo sapiens) (P11388 whole entry): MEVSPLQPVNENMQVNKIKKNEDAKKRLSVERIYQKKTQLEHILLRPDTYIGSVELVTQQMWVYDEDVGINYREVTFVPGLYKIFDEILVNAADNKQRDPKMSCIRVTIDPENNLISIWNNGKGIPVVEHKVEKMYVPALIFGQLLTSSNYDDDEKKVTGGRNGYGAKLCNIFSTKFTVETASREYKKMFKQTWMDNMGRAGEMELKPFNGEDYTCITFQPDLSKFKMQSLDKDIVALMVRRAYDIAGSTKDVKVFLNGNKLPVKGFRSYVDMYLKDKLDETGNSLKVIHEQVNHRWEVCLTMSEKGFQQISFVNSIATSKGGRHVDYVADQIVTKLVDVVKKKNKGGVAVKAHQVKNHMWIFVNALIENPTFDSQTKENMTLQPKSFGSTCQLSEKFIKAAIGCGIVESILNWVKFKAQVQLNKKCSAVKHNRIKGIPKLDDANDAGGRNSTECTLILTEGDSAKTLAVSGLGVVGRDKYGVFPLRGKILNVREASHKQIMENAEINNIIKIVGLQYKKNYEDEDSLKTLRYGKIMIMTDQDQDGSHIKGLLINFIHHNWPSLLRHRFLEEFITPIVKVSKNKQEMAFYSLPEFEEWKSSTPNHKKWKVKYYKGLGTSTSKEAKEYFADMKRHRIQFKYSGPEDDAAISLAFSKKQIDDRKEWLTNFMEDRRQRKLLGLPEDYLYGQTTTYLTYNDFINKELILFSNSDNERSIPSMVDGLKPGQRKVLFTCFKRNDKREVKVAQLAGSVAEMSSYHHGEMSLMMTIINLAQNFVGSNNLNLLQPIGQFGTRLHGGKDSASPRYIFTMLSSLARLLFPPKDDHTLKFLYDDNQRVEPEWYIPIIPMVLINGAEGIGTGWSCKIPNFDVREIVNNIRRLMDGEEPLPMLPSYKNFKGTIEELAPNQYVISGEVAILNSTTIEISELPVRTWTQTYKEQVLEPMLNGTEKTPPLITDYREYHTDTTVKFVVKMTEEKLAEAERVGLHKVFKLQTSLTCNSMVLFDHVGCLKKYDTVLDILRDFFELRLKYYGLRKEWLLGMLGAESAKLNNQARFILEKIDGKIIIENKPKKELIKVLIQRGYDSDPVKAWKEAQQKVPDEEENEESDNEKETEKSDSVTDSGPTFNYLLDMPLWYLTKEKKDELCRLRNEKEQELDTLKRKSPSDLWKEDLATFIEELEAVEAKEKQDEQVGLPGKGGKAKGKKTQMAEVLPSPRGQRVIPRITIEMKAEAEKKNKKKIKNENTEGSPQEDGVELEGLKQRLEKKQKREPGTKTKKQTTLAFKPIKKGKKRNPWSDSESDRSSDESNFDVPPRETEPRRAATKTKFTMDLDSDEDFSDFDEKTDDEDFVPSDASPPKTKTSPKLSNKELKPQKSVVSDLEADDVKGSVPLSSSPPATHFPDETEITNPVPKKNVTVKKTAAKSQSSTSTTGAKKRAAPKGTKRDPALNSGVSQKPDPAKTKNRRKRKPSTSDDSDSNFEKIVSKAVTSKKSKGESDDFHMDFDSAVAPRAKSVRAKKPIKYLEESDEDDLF
SMILES,pIC50 (MCF7 [1]),pIC50 [2],pIC50 [3],pIC50 [4],inhibition [5],inhibition [6],Activity [7],Activity [8],Activity [9],Activity [10],inhibition [11],inhibition [12],further results
CC1(C)CC[C@]2(C(=O)O)CC[C@]3(C)C(=CC[C@@H]4[C@@]5(C)CC[C@H](O[C@@H]6O[C@H](C(=O)O)[C@@H](O)[C@H](O)[C@H]6O)C(C)(C)[C@@H]5CC[C@]43C)[C@@H]2C1,4.95,4.93,4.74,4.87,Active,Active,inactive,inactive,inactive,inactive,Active,Active,Activity (MCF7 [13]): 0.2%; viability at 11.33 µM (MCF7 [14]): 52%; Activity (MCF7 [15]): 46%; Activity (MCF7 [16]): Active; Activity (MCF7 [17]): Active; Activity (MCF7 [18]): 45.9%; Activity (MCF7 [19]): 29.7%; Activity (MCF7 [20]): 35.1%; Ratio (MCF7 [21]): 6.14
C[C@@H]1CC[C@@]2(OC1)O[C@H]1C[C@H]3[C@@H]4CC[C@H]5C[C@@H](O[C@@H]6O[C@H](CO)[C@H](O[C@@H]7O[C@H](CO)[C@@H](O)[C@H](O[C@@H]8OC[C@@H](O)[C@H](O)[C@H]8O)[C@H]7O[C@@H]7O[C@H](CO)[C@@H](O)[C@H](O)[C@H]7O)[C@H](O)[C@H]6O)CC[C@]5(C)[C@H]4CC[C@]3(C)[C@H]1[C@@H]2C [DEGALACTOTIGONIN],5.08,5.03,4.81,4.93,Active,Active,inactive,inactive,inactive,inactive,Active,Active,Activity (MCF7 [22]): 0.5%; Activity (MCF7 [23]): 98.7%; Activity (MCF7 [24]): 9%; Activity (MCF7 [25]): Active; Activity (MCF7 [26]): Active; Activity (MCF7 [27]): 28.5%; Activity (MCF7 [28]): 36.3%
